Results taken from patent publication US8268848B2, “Cyclopropane compound” (Eisai R&D Management Co., Ltd., priority 2010, dated 2012).
Like-named read-outs stand apart in the source and are kept apart here.

Tests used:
OX1 = molecular target: T1, OX1 (Homo sapiens, UniProt O43613); test: Measurement of orexin receptor-binding ability ([125I]-OX-A, cell membranes, OX1); parameters: expressed in transfected cells; host or cells: CHO cells (membrane preparation)
T1 sequence (O43613 1-425): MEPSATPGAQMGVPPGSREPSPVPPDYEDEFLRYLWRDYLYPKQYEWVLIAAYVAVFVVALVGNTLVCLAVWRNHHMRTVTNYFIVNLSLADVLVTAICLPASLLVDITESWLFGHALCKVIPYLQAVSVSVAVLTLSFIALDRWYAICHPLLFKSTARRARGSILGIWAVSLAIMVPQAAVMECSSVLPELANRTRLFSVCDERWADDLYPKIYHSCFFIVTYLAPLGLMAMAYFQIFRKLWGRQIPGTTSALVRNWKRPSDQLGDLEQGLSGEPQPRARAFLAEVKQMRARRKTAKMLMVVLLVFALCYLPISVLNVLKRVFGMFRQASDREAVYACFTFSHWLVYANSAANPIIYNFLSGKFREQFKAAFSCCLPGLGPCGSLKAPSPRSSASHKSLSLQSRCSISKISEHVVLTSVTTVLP

OX2 = molecular target: T2, OX2 (Homo sapiens, UniProt O43614); test: Measurement of orexin receptor-binding ability ([125I]-OX-A, cell membranes, OX2); parameters: expressed in transfected cells; host or cells: CHO cells (membrane preparation); details: membranes of recombinant CHO cells expressing OX2, 0.2 nM [125I]-OX-A
T2 sequence (O43614 1-444): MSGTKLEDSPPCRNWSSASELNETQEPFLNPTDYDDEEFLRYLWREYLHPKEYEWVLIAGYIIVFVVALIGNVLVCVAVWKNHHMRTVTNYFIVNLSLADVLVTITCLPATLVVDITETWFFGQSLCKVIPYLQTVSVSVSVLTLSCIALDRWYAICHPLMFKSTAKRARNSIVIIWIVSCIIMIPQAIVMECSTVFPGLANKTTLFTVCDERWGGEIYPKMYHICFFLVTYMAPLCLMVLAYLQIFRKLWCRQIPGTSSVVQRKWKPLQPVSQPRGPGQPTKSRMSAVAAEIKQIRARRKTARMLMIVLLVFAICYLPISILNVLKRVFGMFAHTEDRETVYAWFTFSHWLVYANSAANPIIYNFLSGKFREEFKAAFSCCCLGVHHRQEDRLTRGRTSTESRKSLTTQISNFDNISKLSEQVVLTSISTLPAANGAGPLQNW

[1] = membranes of recombinant CHO cells expressing OX1, 0.2 nM [125I]-OX-A, read-out: OX1 (IC50)

Row | SMILES | IC50 (OX1; [1]) [nM] | IC50 (OX2; read-out: OX2 (IC50)) [nM] | IC50 (OX1) [nM] | IC50 (OX2; OX2 (IC50) nM) [nM]
1 | Cc1ncc(OC[C@@]2(c3ccccc3)C[C@H]2C(=O)Nc2ccc(F)c(F)c2)c(C)n1 [Example 30] | 78 | 12 | – | –
2 | Cc1ncc(OCC2(c3ccccc3F)CC2C(=O)Nc2ccc(Cl)cn2)c(C)n1 (centres unmarked) [Example 262] | – | – | 85 | 51
3 | Cc1ncc(OC[C@@]2(c3ccc(Br)cc3)C[C@H]2C(=O)Nc2ccc(Cl)cn2)c(C)n1 [Example 273, (1R,2S)-2-(4-bromophenyl)-N-(5-chloropyridin-2-yl)-2-{[(2,4-dimethylpyrimidin-5-yl)oxy]methyl}cyclopropanecarboxamide] | – | – | 69 | 10
4 | Cc1ncc(OC[C@@]2(c3ccccc3)C[C@H]2C(=O)Nc2cccc(S(C)(=O)=O)c2)c(C)n1 [Example 29] | 459 | 55 | – | –
5 | Cc1ncc(OC[C@@]2(c3ccc(F)cc3)C[C@H]2C(=O)Nc2cc(C)c(F)cn2)c(C)n1 [Example 111, (1R,2S)-2-{[(2,4-dimethylpyrimidin-5-yl)oxy]methyl}-N-(5-fluoro-4-methylpyridin-2-yl)-2-(4-fluorophenyl)cyclopropanecarboxamide] | 34 | 6 | – | –
6 | Cc1ncc(OCC2(c3cccc(Cl)c3)CC2C(=O)Nc2cccnc2)c(C)n1 (centres unmarked) [Example 157] | – | – | 397 | 69
7 | Cc1ncc(OC[C@@]2(c3cccc(F)c3)C[C@H]2C(=O)Nc2ccnc(F)c2)c(C)n1 [Example 97] | – | – | 105 | 21
8 | COc1cccc(NC(=O)[C@@H]2C[C@@]2(COc2cnc(C)nc2C)c2ccccc2)n1 [Example 11] | 279 | 53 | – | –
9 | COCc1nc(C)ncc1OC[C@@]1(c2ccc(F)cc2)C[C@H]1C(=O)Nc1cc(C)c(F)cn1 [Example 205, (1R,2S)-N-(5-fluoro-4-methylpyridin-2-yl)-2-(4-fluorophenyl)-2-{[(4-methoxymethyl-2-methylpyrimidin-5-yl)oxy]methyl}cyclopropanecarboxamide] | – | – | 9 | 6
10 | Cc1ncc(OC[C@@]2(c3ccccc3)C[C@H]2C(=O)Nc2cc(Cl)ccn2)c(C)n1 [Example 49] | – | – | 65 | 23
11 | CCc1nc(C)ncc1OC[C@@]1(c2ccccc2)C[C@H]1C(=O)Nc1cc(C)c(F)cn1 [Example 122] | < 20 | 7 | – | –
12 | Cc1ncc(OC[C@@]2(c3ccccc3)C[C@H]2C(=O)Nc2cccc(C(F)(F)F)c2)c(C)n1 [Example 43, (1R,2S)-2-{[(2,4-dimethylpyrimidin-5-yl)oxy]methyl}-2-phenyl-N-[3-(trifluoromethyl)phenyl]cyclopropanecarboxamide] | 86 | 7 | – | –
13 | Cc1ncc(OCC2(c3ccc(F)cc3)CC2C(=O)Nc2ccc(Cl)cn2)c(C)n1 (centres unmarked) [Example 102] | – | – | 50 | 23
14 | Cc1nc(C)[n+]([O-])cc1OC[C@@]1(c2ccccc2)C[C@H]1C(=O)Nc1ccc(F)nc1 [Example 81, (1R,2S)-2-[(2,4-dimethyl-1-oxopyrimidin-5-yl)oxymethyl]-N-(6-fluoropyridin-3-yl)-2-phenylcyclopropanecarboxamide] | 2590 | 63 | – | –
15 | COCCc1nc(C)ncc1OC[C@@]1(c2cccc(F)c2)C[C@H]1C(=O)Nc1cc(C)c(F)cn1 [Example 229, (1R,2S)-N-(5-fluoro-4-methylpyridin-2-yl)-2-(3-fluorophenyl)-2-{[(4-methoxyethyl-2-methylpyrimidin-5-yl)oxy]methyl}cyclopropanecarboxamide] | – | – | 19 | 4
16 | Cc1ncc(OC[C@@]2(c3cccc(F)c3)C[C@H]2C(=O)Nc2ccc(F)cc2)c(C)n1 [Example 92, (1R,2S)-2-{[(2,4-dimethylpyrimidin-5-yl)oxy]methyl}-2-(3-fluorophenyl)-N-(4-fluorophenyl)cyclopropanecarboxamide] | – | – | 23 | 8
17 | Cc1ncc(OC[C@@]2(c3ccccc3)C[C@H]2C(=O)Nc2cccc(Cl)n2)c(C)n1 [Example 12] | 247 | 53 | – | –
18 | Cc1ncc(OCC2(c3cccc(C(F)(F)F)c3)CC2C(=O)Nc2ccc(Cl)cn2)c(C)n1 (centres unmarked) [Example 265] | – | – | 43 | 10
19 | Cc1ncc(OC[C@@]2(c3ccccc3)C[C@H]2C(=O)Nc2cnc(Br)c(C)c2)c(C)n1 [Example 58] | 1930 | 89 | – | –

Row | SMILES | IC50 (OX1; [1]) [nM] | IC50 (OX2; read-out: OX2 (IC50)) [nM] | IC50 (OX1) [nM] | IC50 (OX2; OX2 (IC50) nM) [nM]
20 | Cc1ncc(OC[C@@]2(c3ccccc3)C[C@H]2c2nc3cc(F)ccc3[nH]2)c(C)n1 [Example 303, 2-{(1R,2S)-2-{[(2,4-dimethylpyrimidin-5-yl)oxy]methyl}-2-phenylcyclopropyl}-5-fluoro-1H-benzimidazole] | 75 | 3 | – | –
21 | Cc1ncc(OC[C@@]2(c3ccccc3)C[C@H]2C(=O)Nc2cc(F)cc(C#N)c2)c(C)n1 [Example 34] | – | – | 430 | 18
22 | Cc1cccc(C2(COc3cnc(C)nc3C)CC2C(=O)Nc2cccnc2)c1 (centres unmarked) [Example 177] | 334 | 84 | – | –
23 | Cc1ncc(OC[C@@]2(c3cccc(F)c3)C[C@H]2C(=O)Nc2ccc(F)cn2)c(C)[n+]1[O-] [Example 285] | – | – | 77 | 16
24 | Cc1ncc(OCC2(c3ccc(Cl)cc3)CC2C(=O)Nc2ccc(C#N)cn2)c(C)n1 (centres unmarked) [Example 159] | 624 | 62 | – | –
25 | Cc1ncc(OC[C@@]2(c3ccccc3)C[C@H]2C(=O)Nc2ccc3c(c2)N(C)C(=O)CO3)c(C)n1 [Example 22] | 273 | 17 | – | –
26 | COCc1nc(C)ncc1OC[C@@]1(c2cccc(F)c2)C[C@H]1C(=O)Nc1ccc(C(F)(F)F)cn1 [Example 201, (1R,2S)-2-(3-fluorophenyl)-2-{[(4-methoxymethyl-2-methylpyrimidin-5-yl)oxy]methyl}-N-[5-(trifluoromethyl)pyridin-2-yl]cyclopropanecarboxamide] | – | – | 5 | 4
27 | Cc1ncc(OC[C@@]2(c3cccc(F)c3)C[C@H]2C(=O)Nc2ccc(F)nc2)c(C)n1 [Example 88] | – | – | 267 | 13
28 | Cc1ncc(OC[C@@]2(c3cc(F)cc(F)c3)C[C@H]2C(=O)Nc2ccc(Cl)cn2)c(C)n1 [Example 132, (1R,2S)-N-(5-chloropyridin-2-yl)-2-(3,5-difluorophenyl)-2-{[(2,4-dimethylpyrimidin-5-yl)oxy]methyl}cyclopropanecarboxamide] | – | – | 18 | 4
29 | Cc1ncc(OC[C@@]2(c3ccccc3)C[C@H]2C(=O)Nc2ccc(Cl)cc2)c(C)n1 [Example 25] | 927 | 59 | – | –
30 | Cc1ncc(OC[C@@]2(c3cccc(F)c3)C[C@H]2C(=O)Nc2cnc(F)c(C)c2)c(C)n1 [Example 91] | – | – | 215 | 22
31 | Cc1ncc(OC[C@@]2(c3ccc(Br)cc3)C[C@H]2C(=O)Nc2ccc(F)cn2)c(C)n1 [Example 274] | – | – | 59 | 19
32 | Cc1ncc(OC[C@@]2(c3ccccc3)C[C@H]2C(=O)Nc2ccc(Cl)c(C#N)c2)c(C)n1 [Example 27] | 169 | 15 | – | –
33 | CCc1nc(C)ncc1OC[C@@]1(c2cccc(F)c2)C[C@H]1C(=O)Nc1ccc(F)cc1 [Example 316, (1R,2S)-2-{[(4-ethyl-2-methylpyrimidin-5-yl)oxy]methyl}-2-(3-fluorophenyl)-N-(4-fluorophenyl)cyclopropanecarboxamide] | 7 | 1.1 | – | –
34 | Cc1ncc(OCC2(c3ccccc3C)CC2C(=O)Nc2cccnc2)c(C)n1 (centres unmarked) [Example 180] | 231 | 33 | – | –
35 | Cc1ncc(OCC2(c3cccc(Cl)c3)CC2C(=O)Nc2ccc(C#N)cn2)c(C)n1 (centres unmarked) [Example 156] | – | – | 42 | 13
36 | Cc1ncc(OC[C@@]2(c3cccc(I)c3)C[C@H]2C(=O)Nc2ccc(F)cn2)c(C)n1 [Example 283, (1R,2S)-2-{[(2,4-dimethylpyrimidin-5-yl)oxy]methyl}-N-(5-fluoropyridin-2-yl)-2-(3-iodophenyl)cyclopropanecarboxamide] | – | – | 172 | 9
37 | O=C(Nc1ccc(F)cn1)[C@@H]1C[C@@]1(COc1c[nH]c(=O)nc1C(F)(F)F)c1cc(F)cc(F)c1 [Example 291, (1R,2S)-2-(3,5-difluorophenyl)-N-(5-fluoropyridin-2-yl)-2-{[(2-oxo-4-trifluoromethyl-1,2-dihydropyrimidin-5-yl)oxy]methyl}cyclopropanecarboxamide] | > 200 | 49 | – | –
